Columns and labels:
Assay in all cases: relative viability (nuclei count vs DMSO), 5 days (fraction); higher = more cells survive
[1] = compound: C1=CC=C(C(=C1)C2=CC=C(C=C2)C3=CSC4=C3C(=C(C(=O)N4)C#N)O)O + O=C(c1cc(Cc2n[nH]c(=O)c3ccccc23)ccc1F)N1CCN(C(=O)C2CC2)CC1 [Olaparib] (partner 8 µM)
Outline: (§1)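 Dosing by pin tool came one day after lung cancer cell lines were seeded in 1536-well plates, using either one drug or a fixed anchor-drug dose plus five library-drug doses (not always all listed) in √10 steps. After 5 days, nuclei were counted on 4× images. Relative viability is treated-well nuclei count divided by vehicle-well nuclei count, and values are medians of duplicate plates.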

[2] = compound: O=C(CCCCCCNC(=O)c1cnc(N(c2ccccc2)c2ccccc2)nc1)NO [Ricolinostat] + NC(=O)Nc1cc(-c2cccc(F)c2)sc1C(=O)N[C@H]1CCCNC1 [AZD7762] (partner 0.2 µM)
Outline: as §1

[3] = compound: C1=CC=C(C(=C1)C2=CC=C(C=C2)C3=CSC4=C3C(=C(C(=O)N4)C#N)O)O + CC(=O)c1c(C)c2cnc(Nc3ccc(N4CCNCC4)cn3)nc2n(C2CCCC2)c1=O [Palbociclib] (partner 0.5 µM)
Outline: as §1

[4] = compound: O=C(CCCCCCNC(=O)c1cnc(N(c2ccccc2)c2ccccc2)nc1)NO [Ricolinostat] + CC1(C)CCC(c2ccc(Cl)cc2)=C(CN2CCN(c3ccc(C(=O)NS(=O)(=O)c4ccc(N[C@H](CCN5CCOCC5)CSc5ccccc5)c(S(=O)(=O)C(F)(F)F)c4)cc3)CC2)C1 [Navitoclax] (partner 0.5 µM)
Outline: as §1

Cell Line	relative viability ([1]; first compound 0.08 µM)	relative viability ([1]; first compound 0.253 µM)	relative viability ([1]; first compound 0.8 µM)	relative viability ([1]; first compound 2.53 µM)	relative viability ([1]; first compound 8 µM)	relative viability ([2]; first compound 0.253 µM)	relative viability ([2]; first compound 0.8 µM)	relative viability ([2]; first compound 2.53 µM)	relative viability ([3]; first compound 0.08 µM)	relative viability ([3]; first compound 0.253 µM)	relative viability ([3]; first compound 0.8 µM)	relative viability ([3]; first compound 2.53 µM)	relative viability ([3]; first compound 8 µM)	relative viability ([4]; first compound 0.253 µM)	relative viability ([4]; first compound 0.8 µM)	relative viability ([4]; first compound 2.53 µM)	relative viability ([2]; first compound 0.08 µM)	relative viability ([4]; first compound 0.08 µM)
NCI-H2085	0.754	0.847	0.771	0.796	0.702	0.912	0.934	0.784	0.468	0.573	0.435	0.49	0.472	1.14	1	0.947		
EPLC-272H	0.665	0.753	0.856	0.917	0.509	0.194	0.178	0.141	0.329		0.281	0.336	0.304	0.784	0.992	0.631		
A-427	0.781	0.71	0.849	0.712	0.793	0.708	0.518	0.507	0.551	0.535	0.504	0.553	0.543	0.906	0.89	0.754	0.606	0.861
EMC-BAC-2	0.48	0.58	0.438	0.484	0.496	1.03	0.968	0.557	0.523	0.595	0.507	0.539	0.51	1.09	1.2	1.2	1.01	1.04
NCI-H2405	0.896		0.928	0.825	0.878	0.781	0.738	0.76	0.476		0.516	0.513	0.531	0.935	0.975	0.77	0.698	0.577
NCI-H1993	0.988	1.67	0.894	1.01	0.882	0.884	0.55	0.459	0.702	0.674	0.716	0.631	0.607	1.11	1.01	1.04	0.53	0.798
LU99A	0.255	0.225	0.248	0.262	0.266	0.378	0.253	0.159	0.389	0.371	0.44	0.469	0.392	0.701	0.603	0.491	0.324	0.782
ChaGo-K-1	0.388	0.443	0.396	0.439	0.45	0.901	0.862	0.798	0.839	0.913	1.01	1.01	0.836	1.11	0.888	0.953	0.842	1.11
NCI-H1355	0.734	0.956	0.745	0.775	0.553	0.853	0.674	0.575	0.445	0.413	0.437	0.412	0.378	0.916	0.887	0.747	0.689	
NCI-H838	0.522	0.963	0.811	0.784	0.773	0.941	0.963	0.958	0.22	0.231	0.193	0.201	0.186	1.13	1.19	0.967	0.827	0.97
NCI-H460	0.341	0.406	0.331	0.452	0.434	0.582	0.587	0.322	0.15	0.149	0.15	0.101	0.158	0.93	1.08	1.21	0.589	1.12
HCC-78	0.815	1.4	0.91	0.787	0.711	0.718	0.453	0.2	0.463	0.477	0.45	0.602	0.413	0.771	0.561	0.435		
NCI-H1703	0.422	0.417	0.682	0.336	0.362	0.132		0.11						0.978	1.05	1.54		
H3255	0.612	0.67	0.524	0.624	0.574	0.759	0.75	0.849	0.311	0.346	0.294	0.31	0.319	0.495	0.483	0.483	0.717	0.537
NCI-H1944	0.465	0.433	0.386	0.464	0.373	0.483	0.354	0.21	0.329	0.343	0.352	0.306	0.289	0.972	1.04	0.901	0.463	0.993
LOU-NH91	0.877	1.01	0.872	0.959	0.877	0.788	0.796	0.739	0.501	0.542	0.535	0.544	0.534	0.777	0.642	0.6		
NCI-H2347	0.645	0.632	0.569	0.634	0.579	0.718	0.665	0.478	0.46	0.429	0.361	0.442	0.423	0.739	0.73	0.671	0.57	0.623
NCI-H650	0.42	0.375	0.402	0.495	0.432	0.993	0.849	0.579	0.305	0.357	0.329	0.273	0.344				0.706	
NCI-H596	0.594	0.683	0.695	0.539	0.658	1.12	1.08	0.686						0.954	0.858	0.887	0.965	0.951
SW 900		1.13	0.869	0.903	0.839	0.534	0.513	0.369		0.621	0.638	0.518	0.429				0.632	

Source: the supplement of paper PMC10307832
